What was measured:
[1] = tested on: vagal action potentials elicited by ATP; conditions: dog; cited from earlier work
[2] = tested on: vagal C fiber; experiment: Vagal activation experiments in dogs: action potentials in vagal C fibers; type: in vivo; conditions: anesthetized dog, rapid bolus; simultaneous recording with RAR-containing fiber
Protocol: (§1) The experiments described in Example 5 were performed essentially as described in Pelleg et al. [(1996) J. Physiol. 490(1):265-275] and U.S. Pat. No. 5,874,420, both of which are incorporated herein by reference in their entirety. In brief, they were performed on anesthetized (sodium pentobarbitone, 30 mg kg^−1 plus 3 mg kg^−1 h^−1, intravenous) dogs artificially ventilated with room air using a respirator. Arterial blood pH, PO2, PCO2, body temperature were maintained as described in U.S. Pat. No. 5,874,420. A peripheral vein was cannulated for the administration of physiological saline solution and maintenance doses of anesthetic. Catheters were introduced via the femoral vein and left atrial appendage and positioned in the right atrium and left atrium for the administration of test solutions. The chest was opened by a longitudinal sternotomy. The right cervical vagosympathetic trunk was exposed by a midcervical longitudinal section of the skin and careful dissection of neck muscles and connective tissues. The edges of the cut skin were elevated and secured to create a trough which was filled with warm (about 37° C.) mineral oil. A section of the vagosympathetic trunk was placed on a small plate of black Perspex™ and fine branches were separated from the main bundle by careful dissection using microsurgical tools and a dissecting microscope (Model F212, Jenopik Jena, GmbH, Germany).
Extracellular neural action potentials were recorded using a custom-made bipolar electrode that contained two platinum-iridium wires (1.25 cm×0.0125 cm) connected to a high-impedence first-stage differential amplifier (model AC8331, CW, Inc., Ardmore, Pa.) via a shielded cable. The output of the first-stage amplifier was fed into a second-stage differential amplifier (model BMA-831/C, CWE, Inc.). Isolated fibers were laid on the pair of platinum-iridium wires. Vagal C fibers with chemosensitive endings have a sparse irregular discharge which is not associated with cardiac or respiratory cycles. […]
ATP (3 umole kg^−1) and capsaicin (10 ug kg^−1) were administered as a rapid bolus into the right atrium (5 ml test solution+5 ml physiological saline flush). α,βmATP and β,γmATP were given as one low dose only (0.75 umol kg^−1) to avoid systemic side effects. […] To exclude involvement of baroreceptors in the recorded neural activity, the latter was monitored before and after a bolus of nitroglycerine (1 mg; intravenous). […]

[3] = tested on: pulmonary vagal afferent A fibers (P2X3/P2X2/3-receptors); experiment: Perfused nerve-lung preparation: action potentials in A fibers; type: cell-based, guinea pig; conditions: A fibers (n=7); 10 μM, 1 mL bolus; mean±SD
Protocol: (§2) The method for the extracellular recording of the activity of vagal sensory neurons projecting to guinea pig lungs -has been described in detail previously in Canning et al. [(2004) J. Physiol. 557:543-545], which is incorporated herein by reference in its entirety. Briefly, male Hartley guinea pigs (100-200 g) were killed with CO2 inhalation and exsanguination. The blood from the pulmonary circulation was washed out by in situ perfusion with Krebs' bicarbonate solution (KBS; comprised of 118 mM NaCl, 5.4 mM KCl, 1.0 mM NaH2PO4, 1.2 mM MgSO4, 1.9 mM CaCl2, 25.0 mM NaHCO3, 11.1 mM dextrose, and gassed with 95% O2-5% CO2 at pH7.4). The KBS contained 3 uM indomethacin to reduce the indirect influence of tissue prostanoids on sensory fiber activity. Trachea and right lungs, having intact right-side extrinsic vagal innervation by the inclusion, e.g., of right jugular and nodose ganglia, were dissected from the exsanguinated guinea pigs and placed in a two-compartment tissue bath. The right nodose and jugular ganglia, along with the rostral vagus nerve, were placed into one compartment of the tissue bath whereas the lung and trachea were placed into the second compartment of the tissue bath. The two compartments were separately superfused with KBS (6 ml min^−1, at 37° C.).
(§3) The pulmonary artery and trachea were cannulated with polyethylene (PE) tubing and continuously perfused with KBS (4 ml min^−1 and 2 ml min^−1, respectively). […]
(§4) Once a mechanosensitive receptive field was identified, a brief [<1 millisecond (ms)] electrical stimulus was delivered by a small concentric electrode that was positioned over a discrete region of the mechanosensitive receptive field to determine the conduction velocity of the fiber. […] Conduction velocity was calculated by dividing the distance along the nerve pathway by the time between the shock artifact and the action potential evoked by electrical stimulation of the mechanosensitive receptive field. […]

[4] = tested on: pulmonary RAR-containing afferent nerve fiber; experiment: Vagal activation experiments in dogs: action potentials in RAR-containing fibers; type: in vivo; conditions: anesthetized dog
Protocol: as §1
Extracellular neural action potentials were recorded using a custom-made bipolar electrode that contained two platinum-iridium wires (1.25 cm×0.0125 cm) connected to a high-impedence first-stage differential amplifier (model AC8331, CW, Inc., Ardmore, Pa.) via a shielded cable. The output of the first-stage amplifier was fed into a second-stage differential amplifier (model BMA-831/C, CWE, Inc.). Isolated fibers were laid on the pair of platinum-iridium wires. Vagal C fibers with chemosensitive endings have a sparse irregular discharge which is not associated with cardiac or respiratory cycles. Confirmation of fiber type was obtained by: first monitoring the response to capsaicin (10 microg kg^−1, intra-right atrial bolus); second, monitoring the response to mechanical stimulation of the lungs using gentle probing with forceps as well as inflation of the lungs to 2-3 times the tidal volume; and third, determining the speed of conduction using a stimulating electrode positioned distal to the initial recording site. Nerve fibers with RAR on their pulmonary endings, spontaneously fire a brief (i.e., short lasting) volley of action potentials associated with peak tracheal pressure during each respiratory cycle.
[…] Volume controls consisted of either 5 ml+5 ml or 1 ml+3 ml physiological saline. All injections were performed in the same mode by the same person. To exclude involvement of baroreceptors in the recorded neural activity, the latter was monitored before and after a bolus of nitroglycerine (1 mg; intravenous).
The procedure described in Example 1 was used to measure action potentials in dog pulmonary fibers with RAR on their terminals following administration of various agents. RAR activation generated a brief volley of action potentials associated with each respiratory cycle that was seen before as well as after administration of ATP (FIG. 7). […] Thus ATP modified the activity of the RAR-containing fiber manifested in their transient loss of the rapid adaptability characteristic.

[5] = tested on: pulmonary vagal afferent C fibers (P2X3/P2X2/3-receptors); experiment: Perfused nerve-lung preparation: action potentials in C fibers; type: cell-based, guinea pig; conditions: C fibers (n=4); 10 μM, 1 mL bolus; mean±SD
Protocol: as §2, §3, §4

| SMILES | effect on number of vagal action potentials elicited by ATP [1] | effect on action potentials of C fibers [2] | frequency of the generated action potentials [3] [discharge/sec] | potency relative to ATP ([4]; FIG. 9) | effect on action potentials of RAR-containing fibers ([4]; rapid bolus, ATP 6 μmol/kg, capsaicin 10 ug kg−1, analogs 0.75 umol kg−1) | frequency of the generated action potentials [5] [discharge/sec] |
| --- | --- | --- | --- | --- | --- | --- |
| Cc1nc(N=Nc2ccc(S(=O)(=O)O)cc2S(=O)(=O)O)c(COP(=O)(O)O)c(C=O)c1O [PPADS, pyridoxalphosphate-6-azophenyl-2′4′-disulphonic acid] | reduced the number of vagal action potentials |  |  |  |  |  |
| Nc1ncnc2c1ncn2[C@@H]1O[C@H](COP(=O)(O)CP(=O)(O)OP(=O)(O)O)[C@@H](O)[C@H]1O [α,βmATP, α,β-methylene ATP] |  | acted similarly to ATP | 1543±285 | more potent than ATP | acted similarly to ATP | 146±29 |
